Results on two compounds are retold here after US5036081A, “Calcium absorption promoter” (Takeda Chemical Industries, Ltd., priority 1988, dated 1991).

The subject of data set [1] is bone resorption (antebrachial bones, radius and ulna, of a fetus). In words: tissue or blood. Conditions: for ^45 Ca released into medium: 2 days, mean ± S.D. (n = 5). It is filed as cell-based, Sprague-Dawley rat. How it is done:
Effect of N-(1,3-dihydroxy-2-propyl)valiolamine and 1,25(OH)2 vitamin D3 on bone resorption
The bone resorption rate was determined by the method of Raisz (J. Clin. Invest. 44, 103-116, 1965). Thus, one Sprague-Dawley rat on day 18 of gestation was subcutaneously dosed with 50 μCi of ^45 Ca (an isotope of calcium, in CaCl2) and laparotomy was performed on the next day. The fetuses were aseptically taken out and under a dissecting microscope, the bilateral antebrachial bones (radius and ulna) of a fetus were cut off from the trunk. The connective tissues and cartilages were removed as much as possible to prepare a sample for bone culture. Each piece of bone was cultured in 0.6 ml of BGJb medium (Fitton-Jackson modification, GIBCO Laboratories, U.S.A., supplemented with 2 mg/ml of bovine serum albumin) at 37° C. for 24 hours and after addition of AO-128 at a final concentration of 10 μg/ml or 1,25(OH)2 vitamin D3 at a concentration of 0.8 pg/ml, was further incubated in the same medium for 2 days. The ^45 Ca radioactivity in the medium and that in the bone were respectively counted and the rate (%) of ^45 Ca release from the bone into the medium was calculated by means of the following equation. [formula]
The bones from another fetus of the same litter were incubated without addition of the test compounds for 2 days as controls. The means±S.D. of values found from 5 pieces of bone in each group was calculated and the percentage (%) of the mean value relative to the mean value of the control group was calculated.

The nature of data set [2]: Exogenous calcium absorption promoting effect in rats (oral sucrose + calcium carbonate load, 24 hr urinary calcium). It is filed as in vivo, male rats (Jcl: SD). As to conditions: for Urinary calcium: sucrose 2.5 g/kg, calcium carbonate 400 mg/kg, 24 hr urine, mean ± S.D. On the procedure: Exogenous calcium absorption promoting effect of N-(1,3-dihydroxy-2-propyl)valiolamine in rats
Eight-week-old male rats (Jcl: SD) fasted for 20 hours were orally dosed with 72.5% sucrose aqueous solution [2.5 g (sucrose)/kg (body weight)], 5% calcium carbonate aqueous suspension [400 mg (CaCO3)/kg (body weight)] and 0.015, 0.05 or 0.15% aqueous AO-128 solution [0.3, 1.0 or 3.0 mg ((AO-128)/kg (body weight)] and the 24 hr urine was collected for the determination of urinary calcium. The animals were deprived of food during urine collection but had free access to water. The results are shown in Table 2.

The nature of data set [3]: Dietary calcium absorption promoting effect in rats (medicated diet; body weight, food consumption, urinary and plasma calcium). It is filed as in vivo, male rats (Jcl: SD). As to conditions: for Body weight / Plasma calcium / Food consumption / Urinary calcium: mean ± S.D., n=6; for Urinary calcium: ** = 1% level of significance vs control. The text has this:
Dietary calcium absorption promoting effect of N-(1,3-dihydroxy-2-propyl)valiolamine in rats
Five-week-old male rats (Jcl: SD) were divided into 2 groups and one group (control group) was given a regular diet (CE-2. Japan Clea Co.) while the other group was put on a medicated diet, i.e. CE-2 supplemented with N-(1,3-dihydroxy-2-propyl)valiolamine (AO-128). The level of addition of AO-128 was 10 ppm during the first 10 days and 25 ppm during the subsequent 7 days. On days 3, 10 and 17 of feeding, the body weight, food consumption, urinary calcium excretion, and plasma calcium concentration were determined.

Data set [4] can be described thus: Acute oral toxicity in rats. Conditions: rat, in vivo, rats (Wistar).
Data set [5] in a line: Acute oral toxicity in mice. As to conditions: mouse, in vivo, mice (NRMI).
[6] abbreviates: Day 17, 10 ppm first 10 days then 25 ppm 7 days in diet.

As usually defined, the LD50 is the dose expected to kill half of the subjects tested.

For the compound `C=C1/C(=C\C=C2/CCC[C@]3(C)[C@@H]([C@H](C)CCCC(C)(C)O)CC[C@@H]23)C[C@@H](O)C[C@@H]1O` [1,25(OH)2 vitamin D3, reference compound], the “^45 Ca released into medium” value in data set [1] (0.8 pg/ml, control 12.3 ± 2.2, *p < 0.001) stood at 26.6 ± 2.2%. In addition, the fold induction at 800 fg/mL in data set [1] (Rattus norvegicus, 48 h, read-out: increase in the release of ^45 Ca into the medium) amounted to 2.2.

As to `OCC(CO)N[C@H]1C[C@](O)(CO)[C@@H](O)[C@H](O)[C@H]1O` [AO-128, N-(1,3-dihydroxy-2-propyl)valiolamine], the Urinary calcium is 311 ± 214 µg/day in data set [2] (AO-128 0.3 mg/kg oral, n=7); 441 ± 172 µg/day in data set [2] (AO-128 1.0 mg/kg oral, n=6, * = 2% level of significance vs control); 517 ± 195 µg/day in data set [2] (AO-128 3.0 mg/kg oral, n=6, ** = 1% level of significance vs control); 1.99 ± 0.67 mg/day in data set [3] (Day 3, 10 ppm in diet); 2.10 ± 0.54 mg/day in data set [3] (Day 10, 10 ppm in diet). Besides, the “absorption of calcium (in words)” value in data set [2] (administered concurrently with a carbohydrate and calcium, based on the two experiments) is reported as “increases the absorption of calcium”. In data set [2] (concurrent with calcium carbonate and sucrose), the “urinary calcium (in words)” value was “dose-dependent increase”. The “body weight gain (in words)” value in data set [3] (AO-128 group, diet 10 then 25 ppm) is on record as “a tendency of suppressed body weight gain”. The Body weight in data set [3] (Day 3, 10 ppm in diet) is 143 ± 7 g; in data set [3] (Day 10, 10 ppm in diet), 176 ± 8 g; in data set [3] (setting [6]), 250 ± 14 g. Further, the Plasma calcium in data set [3] (Day 3, 10 ppm in diet) stood at 10.8 ± 0.5 mg/dL; in data set [3] (Day 10, 10 ppm in diet), 10.3 ± 0.5 mg/dL; in data set [3] (setting [6]), 9.9 ± 0.3 mg/dL. Besides, the Food consumption is 12.7 ± 1.7 g/day in data set [3] (Day 3, 10 ppm in diet, * = 5% level of significance vs control); 22.7 ± 2.3 g/day in data set [3] (Day 10, 10 ppm in diet); 24.5 ± 2.0 g/day in data set [3] (setting [6]). Further, the “urinary calcium excretion (in words)” value in data set [3] (all determination days) is recorded as “increases”. The “food consumption (in words)” value in data set [3] (day 3) was “slight decrease on day 3”; in data set [3] (day 10) it was “recovery on day 10”; in data set [3] (day 17), “a tendency of increase in day 17”. In data set [3] (days 3, 10 and 17), the “plasma calcium concentration (in words)” value is on record as “no significant change”. For the same compound, the 50% lethal dose (LD50) was roughly 20000 mg/kg in data set [4] and 14700 to 21500 mg/kg in data set [5]. Also, the “effect on bone resorption (in words)” value in data set [1] (10 μg/ml) was “no change”. In data set [1] (10 μg/ml, control 12.7 ± 3.2), the “^45 Ca released into medium” value worked out at 12.6 ± 2.5%.
